Measured values reported in patent publication US9029168B2, “Use and making of biosensors utilizing antimicrobial peptides for highly sensitive biological monitoring” (priority 2010, dated 2015).

What was measured:
pathogenic E. coli cells = assay: Real-time detection in microfluidic flow cell, impedance response; format: binding; conditions: flow rate 5 μL/min
Experimental: To simulate the use of the AMP microelectrodes in everyday applications, such as direct water sampling, the biosensor response tested to perform in real time, as shown in FIG. 8. First, a microfluidic cell was bonded to the interdigitated biosensor chip (FIG. 8A), such that the electrodes were perpendicular to the direction of the sample flow (FIG. 8B). Next, fluid was injected using a syringe pump connected to the inlet port, and allowed to flow through to the outlet port, at a flow rate of 100 μL/min. The flow cell was first flushed with buffer to establish a baseline. Various dilutions (10^4-10^7 CFU/mL) of pathogenic E. coli cells in PBS were then injected to the channel at a reduced flow rate of 5 μL/min for 30 min. […] Simultaneously, the impedance response was continuously monitored during the sample flow-through process (FIG. 8D). […] This difference between detection in flowing and static water sample has also been reported in fluorescent based assays. This difference is attributed to the opposing effects of shear and mixing on the binding kinetics.
Interdigitated capacitive electrodes were microfabricated on 4″ p-type silicon wafers (boron-doped, <100>, 10-16 Ω-cm, 550 μm thick). A 1 μm thick silicon dioxide layer was deposited on the wafer by plasma enhanced chemical vapor deposition (PECVD) to form electrical insulation between the Si substrate and the capacitive electrodes. S1813 photoresist was patterned using photolithography, followed by electron-beam evaporation of 10 nm Ti and 300 nm Au under high vacuum conditions. The titanium layer helps to provide adhesion of the Au to the SiO2. The IMA was then finally developed by lift-off patterning of the metallic layer in acetone with ultrasonic activation. […]
(§1) Dielectric property changes due to AMP-bacteria interactions were probed using a Fast-Fourier Transform (FFT) spectrum analyzer. […] For real-time measurements, the impedance vs. time data was recorded while buffer solutions or different dilutions of bacterial solutions flowed through the microfluidic channel. […]

Listeria monocytogenes = assay: Selectivity of AMP-functionalized biosensor (impedance at 10 Hz, fluorescent microscopy), Gram-negative pathogens relative to Listeria; format: binding; conditions: all 10^7 CFU/mL
Experimental: (§2) As a next step, the selectivity of the AMP-functionalized biosensors toward various bacterial species was determined. Specifically, the binding behavior of AMPs was probed toward: 1) Gram-negative pathogenic E. coli O157:H7, 2) the non-pathogenic E. coli strain ATCC 35218, 3) Gram-negative pathogenic Salmonella typhimurium, and Listeria monocytogenes, a Gram-positive pathogen. Collectively, these studies elucidate the matrix of selectivity as it depends on Gram-negative vs. Gram-positive species, and pathogenic vs. non-pathogenic strains. […]
(§3) Stock solutions of propidium iodide (PI), nucleic acid stain (Molecular probes, Eugene, Oreg.) were made from solid form by dissolving PI (MW=668.4) in deionized water at 1 mg/mL (1.5 mM) and stored at 4° C., protected from light. […] The binding pattern of the different bacterial cells was imaged using a Zeiss axiovert inverted microscope and recorded with a Zeiss axiocam digital camera. Surface density of the bound bacterial cells was analyzed and plotted using imageJ software from NIH.
as §1

E. coli O157:H7 cells = assay: Impedance spectroscopy of magainin-functionalized interdigitated microelectrode array, sensitivity measurements; format: binding; conditions: E. coli O157:H7 10^7 CFU/mL; response at 10 Hz
Experimental: FIG. 2 schematically outlines the sensing platform. AMPs are first immobilized on microfabricated interdigitated gold electrodes, anode 10 and cathode 12 (FIG. 2A). Magainin I was acquired with an additional cysteine residue at the C-terminus (FIG. 2B), allowing for facile and site specific covalent attachment to the gold electrodes. Next, heat-killed bacterial cells were injected and incubated with the AMP-modified electrodes. If the bacteria are recognized by the AMPs, binding will occur (FIG. 2C), leading to dielectric property changes which can be monitored via a spectrum analyzer. The impedance was measured over a frequency range of 10 Hz to 100 kHz.
Sensitivity of microbial detection is a key determinant for utility of the biosensor. To this end, the sensitivity of the magainin-functionalized microelectrode array in detecting bacterial cells was determined using impedance spectroscopy. […] A “blank” device with no immobilized AMPs was also tested for comparison. […] As the frequency increases, the contribution to the impedance from the bacterial cells decreases, leaving only the dielectric relaxation of small dipoles including water molecules in the buffer solution to affect the measured impedance. FIG. 3B depicts the impedance change at the fixed frequency of 10 Hz. […]

Salmonella typhimurium = assay: Selectivity of AMP-functionalized biosensor, pathogenic E. coli relative to Salmonella; format: binding; conditions: 10^7 CFU/mL
Experimental: as §2, §3, §1

Staphylococcus aureus = conditions: cited from earlier work
[1] = tested on: E. coli O157:H7 bacterial cell; assay: Single bacterium detection on graphene sensors functionalized with antimicrobial peptide, simultaneous resistance and optical data; format: binding; conditions: compared to non-functionalized graphene
From the text: Simultaneous collection of electrical and fluorescence data from the graphene sensors in the presence of fluorescently labeled E. coli cells clearly indicate that the change in the resistance recorded corresponds to the binding and unbinding of the bacterial cell from the graphene surface. The resistance of the graphene sensor remains at the baseline value until the bacterial cell diffuses to the sensor surface and drops down by approximately 0.6 percentage of the original, once the bacterial cell binds to the graphene surface.
The resistance of the sensor decreases from the baseline value up on the binding of the negatively charged bacterial cell and returns back to the initial value up on unbinding, indicating a p-type behavior of the graphene transducer. […] In order to determine the effect of the immobilized AMPs on the binding/unbinding properties simultaneous resistance and optical data were recorded on graphene sensors functionalized with antimicrobial peptides. […]
Electrical measurements for the detection of single bacteria binding measurements were performed with a lock-in detection system using Stanford Research Systems 810 DSP lock-in amplifier. […] The resistance of the graphene sensor was monitored continuously in the presence of analyte sample of various dilutions of bacterial cells. […]

Escherichia coli = conditions: cited from earlier work
[2] = tested on: methicillin resistant strains of S. aureus; conditions: cited from earlier work
Helicobacter pylori = conditions: cited from earlier work

Substance: GIGKFLHSAGKFGKAFVGEIMKS [magainin I]
- time to measurable response relative to the control sample, all samples (pathogenic E. coli cells; 10^4-10^7 CFU/mL in PBS): ≤ 5 min
- time to saturation of responses (pathogenic E. coli cells; 10^4-10^7 CFU/mL in PBS): ca. 20 min
- time to response, highest concentration sample (pathogenic E. coli cells): ≤ 30 s
- impedance difference, pathogenic Gram-negative E. coli and Salmonella relative to Gram-positive Listeria (Listeria monocytogenes): two
- response of the biosensor towards target cells with increasing concentration of immobilized magainin (E. coli O157:H7 cells): increase monotonically
- response for pathogenic E. coli relative to Salmonella (Salmonella typhimurium): slightly larger response

Substance: Odorranin-HP [O-HP]
- MIC (Staphylococcus aureus): 5 µg/mL
- effect of immobilized peptide on unbinding of bacterial cells [1]: slows the unbinding kinetics
- MIC (Escherichia coli): 30 µg/mL
- antimicrobial activity [2]: exert antimicrobial activity
- MIC (Helicobacter pylori): 20 µg/mL
